Test results: patent US7964647B2 (Mutual Pharmaceutical Company, Inc., priority 2007, dated 2011)

Tested on: patients with acute gout flare (acute gouty arthritic attack)
Assay: Multicenter, randomized, double-blind, placebo-controlled dose comparison study in acute gout flare: efficacy (target joint pain)
Format: in vivo, human
Settings: for Difference between treatment groups in mean change from baseline in target joint pain, High vs. Low / Difference between treatment groups in mean change from baseline in target joint pain, High vs. Placebo / Difference between treatment groups in mean change from baseline in target joint pain, Low vs. Placebo / Change from baseline in target joint pain, Mean / Change from baseline in target joint pain, Median / Difference between treatment groups in mean change from baseline in target joint pain score at 24 hours, High vs. Low / Difference between treatment groups in mean change from baseline in target joint pain score at 24 hours, High vs. Placebo / Difference between treatment groups in mean change from baseline in target joint pain score at 24 hours, Low vs. Placebo: LOCF, ITT
Description: A sufficient number of patients are screened to enroll and randomize 300 patients (100 patients per treatment group) who meet the criteria of the American College of Rheumatology (ACR) for acute arthritis of gout.
Efficacy assessment will be made based on patient and Investigator inputs. Patients will record pain severity and sleep interference on a study diary. The severity of pain for each joint affected by the acute gouty arthritic attack will be rated on an 11-point pain intensity numerical rating scale (PI-NRS) that ranges from 0 (“no pain”) to 10 (“worst possible pain”). […] Investigators will provide clinical assessments in the clinic at all Post-Flare Phase study visits, and at medically necessary intervening visits. For these assessments, each of the patient's joints affected by the acute gouty arthritic attack will be examined and signs and symptoms of inflammation will be rated (erythema [absent, present, or not assessable], swelling [0, “none” to 3, “severe”], and tenderness to touch [0, “none” to 3, “severe”]).
The target joint is identified during data analysis as that joint affected by the acute gout flare with the highest baseline pain score on the patient diary. Ties among maximum joint scores for an individual are resolved by random selection.
The secondary efficacy variables are assessments of magnitude of pain reduction, time to response, time to complete pain relief, and interference with sleep as recorded on patient diaries by the patient. Signs and symptoms of inflammation per Investigator's clinical assessments of the target joint are evaluated. Time to drop out (use of rescue medications) is also evaluated. Investigator global assessment of response to treatment is assessed.
Analyses will also be made on an Evaluable patient population with an Evaluable patient defined as one who, in addition to being included in the PP population, completed the randomized treatment course. The ITT population will be used for the evaluation of safety.
Statistical tests for efficacy analysis are two-tailed with an alpha significance level of 0.05.
The sensitivity to alternate definitions of response (based both on magnitude of reduction from baseline as well as time point) will be evaluated as secondary endpoints. As additional sensitivity analyses, these tests will also be repeated for the PP and Evaluable populations if the sample sizes differ from the overall ITT population by more than 10%.
Change in pain intensity, interference with sleep, time to 50% reduction in pain, and time to complete pain relief will be analyzed as continuous variables using analysis of covariance with study site, treatment group, and site by treatment interaction as independent variables for change in pain intensity and interference with sleep, with baseline score as a covariate. For the Investigator's clinical assessment of inflammation (erythema, swelling, and tenderness to touch) and Investigator's global assessment of response to treatment, the treatment groups will be compared using the Mantel-Haenszel chi-square test stratified on study site.

[1] = 24 hours post first dose, High dose 4.8 mg, N = 52
[2] = 24 hours post first dose, Low dose 1.8 mg, N = 74
[3] = 32 hours post first dose, High dose 4.8 mg, N = 52
[4] = 32 hours post first dose, Low dose 1.8 mg, N = 74
[5] = Early treatment start (within 4 hours)
[6] = Early treatment start (within 4 hours), High dose 4.8 mg
[7] = Early treatment start (within 4 hours), Low dose 1.8 mg
[8] = Hour 24, High dose 4.8 mg, n = 51
[9] = Hour 24, Low dose 1.8 mg, n = 74
[10] = Hour 32, High dose 4.8 mg, n = 51
[11] = Hour 32, Low dose 1.8 mg, n = 74
[12] = Late treatment start (after 4 hours)

Structure (SMILES): COc1cc2c(c(OC)c1OC)-c1ccc(OC)c(=O)cc1[C@@H](NC(C)=O)CC2 [Colchicine, (−)-N-[(7S,12aS)-1,2,3,10-tetramethoxy-9-oxo-5,6,7,9-tetrahydrobenzo[a]heptalen-7-yl]-acetamide]
- Difference between treatment groups in mean change from baseline in target joint pain, High vs. Low (24 hours post first dose): 0.2
- Difference between treatment groups in mean change from baseline in target joint pain, High vs. Placebo (24 hours post first dose): −1.3
- Difference between treatment groups in mean change from baseline in target joint pain, Low vs. Placebo (24 hours post first dose): −1.5
- Change from baseline in target joint pain, Mean [1]: −2.0
- Change from baseline in target joint pain, Median [1]: −2.0
- Change from baseline in target joint pain, Mean [2]: −2.2
- Change from baseline in target joint pain, Median [2]: −2.0
- Number (%) of responders, at least a 2-unit reduction in target joint pain score [1]: 18 (34.6) Number (%)
- Number (%) of responders, at least a 2-unit reduction in target joint pain score [2]: 32 (43.2) Number (%)
- Difference between treatment groups in mean change from baseline in target joint pain, High vs. Low (32 hours post first dose): 0.1
- Difference between treatment groups in mean change from baseline in target joint pain, High vs. Placebo (32 hours post first dose): −1.6
- Difference between treatment groups in mean change from baseline in target joint pain, Low vs. Placebo (32 hours post first dose): −1.6
- Change from baseline in target joint pain, Mean [3]: −2.3
- Change from baseline in target joint pain, Median [3]: −2.0
- Change from baseline in target joint pain, Mean [4]: −2.4
- Change from baseline in target joint pain, Median [4]: −2.5
- Number (%) of responders, at least a 2-unit reduction in target joint pain score [3]: 20 (38.5) Number (%)
- Number (%) of responders, at least a 2-unit reduction in target joint pain score [4]: 34 (45.9) Number (%)
- Difference between treatment groups in mean change from baseline in target joint pain score at 24 hours, High vs. Low [5]: 0.2
- Difference between treatment groups in mean change from baseline in target joint pain score at 24 hours, High vs. Placebo [5]: −1.3
- Difference between treatment groups in mean change from baseline in target joint pain score at 24 hours, Low vs. Placebo [5]: −1.5
- Change from baseline in target joint pain score at 24 hours post first dose, Mean [6]: −2.0
- Change from baseline in target joint pain score at 24 hours post first dose, Median [6]: −2.0
- Change from baseline in target joint pain score at 24 hours post first dose, Mean [7]: −2.2
- Change from baseline in target joint pain score at 24 hours post first dose, Median [7]: −2.0
- Number of responders (>=50% reduction in target joint pain score, no rescue medication) at 24 hours post first dose (High (standard) dose 4.8 mg over 6 h, N = 52, ITT): 17 (32.7) N (%)
- Number (%) of patients using rescue medication up to and including the 24-hour post first dose assessment (High dose 4.8 mg, N = 52): 18 (34.6) n (%)
- Patients with >=0% improvement in target joint pain score at 24 hours post first dose (High dose 4.8 mg, N = 52): 52 (100.0%)
- Patients with >=10% improvement in target joint pain score at 24 hours post first dose (High dose 4.8 mg, N = 52): 32 (61.5%)
- Patients with >=20% improvement in target joint pain score at 24 hours post first dose (High dose 4.8 mg, N = 52): 29 (55.8%)
- Patients with >=30% improvement in target joint pain score at 24 hours post first dose (High dose 4.8 mg, N = 52): 21 (40.4%)
- Patients with >=40% improvement in target joint pain score at 24 hours post first dose (High dose 4.8 mg, N = 52): 21 (40.4%)
- Patients with >=50% improvement in target joint pain score at 24 hours post first dose (High dose 4.8 mg, N = 52): 19 (36.5%)
- Patients with >=60% improvement in target joint pain score at 24 hours post first dose (High dose 4.8 mg, N = 52): 15 (28.8%)
- Patients with >=70% improvement in target joint pain score at 24 hours post first dose (High dose 4.8 mg, N = 52): 10 (19.2%)
- Patients with >=80% improvement in target joint pain score at 24 hours post first dose (High dose 4.8 mg, N = 52): 9 (17.3%)
- Patients with >=90% improvement in target joint pain score at 24 hours post first dose (High dose 4.8 mg, N = 52): 6 (11.5%)
- Patients with >=100% improvement in target joint pain score at 24 hours post first dose (High dose 4.8 mg, N = 52): 6 (11.5%)
- Total Pain Relief (TOTPAR) based on all target joint pain scores, Mean [8]: 20.9
- Total Pain Relief (TOTPAR) based on all target joint pain scores, Median [8]: 11.5
- Total Pain Relief (TOTPAR) based on all target joint pain scores, Mean [9]: 30.5
- Total Pain Relief (TOTPAR) based on all target joint pain scores, Median [9]: 23.0
- Total Pain Relief (TOTPAR) based on all target joint pain scores, Mean [10]: 31.9
- Total Pain Relief (TOTPAR) based on all target joint pain scores, Median [10]: 27.5
- Total Pain Relief (TOTPAR) based on all target joint pain scores, Mean [11]: 45.5
- Total Pain Relief (TOTPAR) based on all target joint pain scores, Median [11]: 34.1
- Difference between treatment groups in mean change from baseline in target joint pain score at 24 hours, High vs. Low [12]: 0.1
- Difference between treatment groups in mean change from baseline in target joint pain score at 24 hours, High vs. Placebo [12]: −1.6
- Difference between treatment groups in mean change from baseline in target joint pain score at 24 hours, Low vs. Placebo [12]: −1.6
- Change from baseline in target joint pain score at 24 hours post first dose, Mean (Late treatment start (after 4 hours), High dose 4.8 mg): −2.3
